Experimental data from PubChem BioAssay (NCI).
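Cultured in 96-well plates, cells were exposed to test compound for 48 hours across five concentrations. GI50 = concentration required for 50% inhibition of growth. TGI is the concentration that stops growth completely.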

What was measured:
Assay in all cases: NCI tumour cell line growth inhibition, 48 h; in the data active means GI50 below about 0.43 µM; inactive means the rest
SNB-78 CNS = test system: SNB-78 CNS
SK-MEL-5 melanoma = test system: SK-MEL-5 melanoma
OVCAR-8 ovarian = test system: OVCAR-8 ovarian
UACC-257 melanoma = test system: UACC-257 melanoma
IGROV1 ovarian = test system: IGROV1 ovarian
COLO 205 colon = test system: COLO 205 colon
KM20L2 colon = test system: KM20L2 colon
RXF 393 renal = test system: RXF 393 renal
HL-60(TB) leukemia = test system: HL-60(TB) leukemia
K-562 leukemia = test system: K-562 leukemia
M19-MEL melanoma = test system: M19-MEL melanoma
HOP-62 NSCLC = test system: HOP-62 NSCLC
SF-268 CNS = test system: SF-268 CNS
HOP-18 NSCLC = test system: HOP-18 NSCLC
EKVX NSCLC = test system: EKVX NSCLC
NCI-H23 lung = test system: NCI-H23 lung
MOLT-4 leukemia = test system: MOLT-4 leukemia
SF-539 CNS = test system: SF-539 CNS
SK-OV-3 ovarian = test system: SK-OV-3 ovarian
SW-620 colon = test system: SW-620 colon
KM12 colon = test system: KM12 colon
OVCAR-4 ovarian = test system: OVCAR-4 ovarian
HCC-2998 colon = test system: HCC-2998 colon
NCI-H460 lung = test system: NCI-H460 lung
SR leukemia = test system: SR leukemia
SK-MEL-28 melanoma = test system: SK-MEL-28 melanoma
OVCAR-3 ovarian = test system: OVCAR-3 ovarian
A498 renal = test system: A498 renal
CAKI-1 renal = test system: CAKI-1 renal
CCRF-CEM leukemia = test system: CCRF-CEM leukemia
U251 CNS = test system: U251 CNS
DMS 273 small cell lung = test system: DMS 273 small cell lung
HOP-92 NSCLC = test system: HOP-92 NSCLC
NCI-H522 lung = test system: NCI-H522 lung
DLD-1 colon = test system: DLD-1 colon
HCT-116 colon = test system: HCT-116 colon
786-0 renal = test system: 786-0 renal
HT29 colon = test system: HT29 colon
UACC-62 melanoma = test system: UACC-62 melanoma
SK-MEL-2 melanoma = test system: SK-MEL-2 melanoma
SF-295 CNS = test system: SF-295 CNS
TK-10 renal = test system: TK-10 renal
M14 melanoma = test system: M14 melanoma
XF 498 CNS = test system: XF 498 CNS
NCI-H226 lung = test system: NCI-H226 lung
LOX IMVI melanoma = test system: LOX IMVI melanoma
SNB-75 CNS = test system: SNB-75 CNS
A549 NSCLC = test system: A549 NSCLC
ACHN renal = test system: ACHN renal
OVCAR-5 ovarian = test system: OVCAR-5 ovarian
SN12C renal = test system: SN12C renal
SNB-19 CNS = test system: SNB-19 CNS
DMS 114 small cell lung = test system: DMS 114 small cell lung
HCT-15 colon = test system: HCT-15 colon
LXFL 529 NSCLC = test system: LXFL 529 NSCLC
MALME-3M melanoma = test system: MALME-3M melanoma
UO-31 renal = test system: UO-31 renal
RPMI-8226 leukemia = test system: RPMI-8226 leukemia
RXF-631 renal = test system: RXF-631 renal

CCC[CH2][Sn]([CH2]CCC)([O]C(=O)c1cc(F)cc(F)c1)[O][Sn]([CH2]CCC)([CH2]CCC)[O]C(=O)c1cc(F)cc(F)c1
2190 nM: TGI (SF-268 CNS)
2350 nM: TGI (LOX IMVI melanoma)
3310 nM: TGI (IGROV1 ovarian)
4320 nM: TGI (SR leukemia)
2760 nM: TGI (SN12C renal)
6740 nM: TGI (NCI-H460 lung)
3020 nM: TGI (UO-31 renal)
10600 nM: TGI (KM20L2 colon)
3060 nM: TGI (SF-295 CNS)
2720 nM: TGI (TK-10 renal)
2290 nM: TGI (SNB-78 CNS)
185 nM: TGI (NCI-H522 lung)
1880 nM: TGI (NCI-H23 lung)
1530 nM: TGI (DMS 114 small cell lung)
inactive: GI50 (SNB-78 CNS) 584 nM | GI50 (SK-MEL-5 melanoma) 1460 nM | GI50 (OVCAR-8 ovarian) 1280 nM | GI50 (UACC-257 melanoma) 1110 nM | GI50 (IGROV1 ovarian) 1640 nM | GI50 (COLO 205 colon) 1050 nM | GI50 (KM20L2 colon) 3100 nM | GI50 (M19-MEL melanoma) 519 nM | GI50 (HOP-62 NSCLC) 5000 nM | GI50 (SF-268 CNS) 910 nM | GI50 (HOP-18 NSCLC) 1960 nM | GI50 (EKVX NSCLC) 1310 nM | GI50 (NCI-H23 lung) 606 nM | GI50 (SF-539 CNS) 1340 nM | GI50 (SK-OV-3 ovarian) 3040 nM | GI50 (SW-620 colon) 626 nM | GI50 (KM12 colon) 3580 nM | GI50 (OVCAR-4 ovarian) 2040 nM | GI50 (HCC-2998 colon) 1710 nM | GI50 (NCI-H460 lung) 2670 nM | GI50 (SK-MEL-28 melanoma) 1140 nM | GI50 (OVCAR-3 ovarian) 1520 nM | GI50 (A498 renal) 1430 nM | GI50 (CAKI-1 renal) 663 nM | GI50 (U251 CNS) 1080 nM | GI50 (DMS 273 small cell lung) 1230 nM | GI50 (HOP-92 NSCLC) 1250 nM | GI50 (DLD-1 colon) 1150 nM | GI50 (HCT-116 colon) 1350 nM | GI50 (786-0 renal) 1270 nM | GI50 (HT29 colon) 1910 nM | GI50 (UACC-62 melanoma) 1400 nM | GI50 (SK-MEL-2 melanoma) 1020 nM | GI50 (SF-295 CNS) 1670 nM | GI50 (TK-10 renal) 1410 nM | GI50 (M14 melanoma) 1480 nM | GI50 (XF 498 CNS) 1400 nM | GI50 (NCI-H226 lung) 1450 nM | GI50 (LOX IMVI melanoma) 1050 nM | GI50 (SNB-75 CNS) 1260 nM | GI50 (A549 NSCLC) 9780 nM | GI50 (ACHN renal) 1510 nM | GI50 (OVCAR-5 ovarian) 1920 nM | GI50 (SN12C renal) 1410 nM | GI50 (SNB-19 CNS) 1520 nM | GI50 (HCT-15 colon) 1380 nM | GI50 (MALME-3M melanoma) 889 nM | GI50 (UO-31 renal) 1660 nM
2860 nM: TGI (OVCAR-3 ovarian) | TGI (SNB-19 CNS)
2200 nM: TGI (SK-MEL-2 melanoma)
2380 nM: TGI (SK-MEL-28 melanoma)
2150 nM: TGI (MOLT-4 leukemia)
3510 nM: TGI (OVCAR-4 ovarian)
1120 nM: TGI (K-562 leukemia)
2770 nM: TGI (SK-MEL-5 melanoma)
2280 nM: TGI (U251 CNS)
2710 nM: TGI (XF 498 CNS) | TGI (SNB-75 CNS)
3320 nM: TGI (HCC-2998 colon)
2590 nM: TGI (EKVX NSCLC)
21800 nM: TGI (A549 NSCLC)
2830 nM: TGI (A498 renal) | TGI (ACHN renal)
4090 nM: TGI (HT29 colon)
2230 nM: TGI (HL-60(TB) leukemia)
2000 nM: TGI (M19-MEL melanoma)
12400 nM: TGI (KM12 colon)
2520 nM: TGI (HOP-92 NSCLC)
1950 nM: TGI (CAKI-1 renal)
2790 nM: TGI (HCT-15 colon)
2810 nM: TGI (M14 melanoma) | TGI (NCI-H226 lung)
2340 nM: TGI (UACC-257 melanoma) | TGI (COLO 205 colon)
3380 nM: TGI (HOP-18 NSCLC)
3430 nM: TGI (OVCAR-5 ovarian)
612 nM: TGI (LXFL 529 NSCLC)
active: GI50 (RXF 393 renal) 423 nM | GI50 (HL-60(TB) leukemia) 374 nM | GI50 (K-562 leukemia) 256 nM | GI50 (MOLT-4 leukemia) 318 nM | GI50 (SR leukemia) 372 nM | GI50 (CCRF-CEM leukemia) 101 nM | GI50 (NCI-H522 lung) 53.8 nM | GI50 (DMS 114 small cell lung) 379 nM | GI50 (LXFL 529 NSCLC) 152 nM
8380 nM: TGI (SK-OV-3 ovarian)
2700 nM: TGI (UACC-62 melanoma)
2470 nM: TGI (DMS 273 small cell lung)
2410 nM: TGI (DLD-1 colon)
2630 nM: TGI (HCT-116 colon)
2540 nM: TGI (OVCAR-8 ovarian)
2800 nM: TGI (SF-539 CNS)
886 nM: TGI (CCRF-CEM leukemia)
14300 nM: TGI (HOP-62 NSCLC)
2180 nM: TGI (MALME-3M melanoma)
2530 nM: TGI (786-0 renal)
1560 nM: TGI (RXF 393 renal)
1920 nM: TGI (SW-620 colon)

COc1ccc(NC(=O)CCc2cc(C(C)(C)C)n[nH]2)cc1
> 100000 nM: TGI (SNB-78 CNS) | TGI (SK-MEL-5 melanoma) | TGI (OVCAR-8 ovarian) | TGI (UACC-257 melanoma) | TGI (IGROV1 ovarian) | TGI (COLO 205 colon) | TGI (KM20L2 colon) | TGI (RXF 393 renal) | TGI (HL-60(TB) leukemia) | TGI (K-562 leukemia) | TGI (M19-MEL melanoma) | TGI (HOP-62 NSCLC) | TGI (SF-268 CNS) | TGI (HOP-18 NSCLC) | TGI (EKVX NSCLC) | TGI (NCI-H23 lung) | TGI (MOLT-4 leukemia) | TGI (SF-539 CNS) | TGI (SK-OV-3 ovarian) | TGI (SW-620 colon) | TGI (KM12 colon) | TGI (HCC-2998 colon) | TGI (NCI-H460 lung) | TGI (SR leukemia) | TGI (SK-MEL-28 melanoma) | TGI (OVCAR-3 ovarian) | TGI (A498 renal) | TGI (CAKI-1 renal) | TGI (CCRF-CEM leukemia) | TGI (U251 CNS) | TGI (RPMI-8226 leukemia) | TGI (DMS 273 small cell lung) | TGI (HOP-92 NSCLC) | TGI (NCI-H522 lung) | TGI (HCT-116 colon) | TGI (786-0 renal) | TGI (HT29 colon) | TGI (UACC-62 melanoma) | TGI (SK-MEL-2 melanoma) | TGI (RXF-631 renal) | TGI (SF-295 CNS) | TGI (TK-10 renal) | TGI (M14 melanoma) | TGI (XF 498 CNS) | TGI (NCI-H226 lung) | TGI (LOX IMVI melanoma) | TGI (SNB-75 CNS) | TGI (A549 NSCLC) | TGI (ACHN renal) | TGI (OVCAR-5 ovarian) | TGI (SN12C renal) | TGI (SNB-19 CNS) | TGI (HCT-15 colon) | TGI (LXFL 529 NSCLC) | TGI (MALME-3M melanoma) | TGI (UO-31 renal)
